These results are taken from ChEMBL document CHEMBL1152360, “Structure-activity relationships of memoquin: Influence of the chain chirality in the multi-target mechanism of action” (Bioorg Med Chem Lett, 2009).

Assay [1] concerns the target Cholinesterases; ACHE & BCHE (Homo sapiens) (UniProt P06276+P22303). Put plainly: Selectivity ratio of IC50 for human recombinant BchE to IC50 for human recombinant AChE.
The next assay addresses Cholinesterase (Homo sapiens, UniProt P06276). Put plainly: Inhibition of human recombinant BchE preincubated 20 mins before substrate addition by Ellman method. On the technique in general: Ellman's reagent forms a yellow product with free thiols.
Assay [2] has as its target Amyloid-beta precursor protein (Homo sapiens) (UniProt P05067). Put plainly: Inhibition of self-assembly of human amyloid beta (1-42) aggregation at 10 uM by thioflavin T-based fluorometric assay.
The target of assay [3] is T1, Acetylcholinesterase (Homo sapiens, UniProt P22303). Put plainly: Inhibition of human AChE-induced amyloid beta (1-40) aggregation by thioflavin T fluorescence-based assay.
T1 sequence (P22303 whole entry): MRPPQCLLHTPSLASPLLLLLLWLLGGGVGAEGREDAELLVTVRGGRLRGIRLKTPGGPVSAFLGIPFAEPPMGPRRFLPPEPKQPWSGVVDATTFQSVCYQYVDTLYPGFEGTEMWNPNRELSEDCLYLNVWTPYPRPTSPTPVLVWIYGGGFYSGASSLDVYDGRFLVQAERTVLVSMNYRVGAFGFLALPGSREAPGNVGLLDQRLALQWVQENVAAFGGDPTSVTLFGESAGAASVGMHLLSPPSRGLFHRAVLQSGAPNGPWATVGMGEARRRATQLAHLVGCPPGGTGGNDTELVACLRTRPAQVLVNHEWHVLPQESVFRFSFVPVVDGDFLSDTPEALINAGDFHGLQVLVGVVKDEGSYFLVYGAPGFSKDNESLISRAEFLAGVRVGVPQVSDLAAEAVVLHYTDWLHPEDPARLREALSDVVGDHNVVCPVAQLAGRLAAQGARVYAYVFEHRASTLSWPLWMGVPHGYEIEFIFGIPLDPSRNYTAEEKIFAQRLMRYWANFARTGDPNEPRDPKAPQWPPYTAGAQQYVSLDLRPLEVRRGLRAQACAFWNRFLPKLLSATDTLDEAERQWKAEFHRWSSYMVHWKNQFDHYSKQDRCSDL
The target in assay [4] is T1, Acetylcholinesterase. Put plainly: Inhibition of human recombinant AChE preincubated 20 mins before substrate addition by Ellman method.

Sequence of Amyloid-beta precursor protein (Homo sapiens) (P05067 whole entry): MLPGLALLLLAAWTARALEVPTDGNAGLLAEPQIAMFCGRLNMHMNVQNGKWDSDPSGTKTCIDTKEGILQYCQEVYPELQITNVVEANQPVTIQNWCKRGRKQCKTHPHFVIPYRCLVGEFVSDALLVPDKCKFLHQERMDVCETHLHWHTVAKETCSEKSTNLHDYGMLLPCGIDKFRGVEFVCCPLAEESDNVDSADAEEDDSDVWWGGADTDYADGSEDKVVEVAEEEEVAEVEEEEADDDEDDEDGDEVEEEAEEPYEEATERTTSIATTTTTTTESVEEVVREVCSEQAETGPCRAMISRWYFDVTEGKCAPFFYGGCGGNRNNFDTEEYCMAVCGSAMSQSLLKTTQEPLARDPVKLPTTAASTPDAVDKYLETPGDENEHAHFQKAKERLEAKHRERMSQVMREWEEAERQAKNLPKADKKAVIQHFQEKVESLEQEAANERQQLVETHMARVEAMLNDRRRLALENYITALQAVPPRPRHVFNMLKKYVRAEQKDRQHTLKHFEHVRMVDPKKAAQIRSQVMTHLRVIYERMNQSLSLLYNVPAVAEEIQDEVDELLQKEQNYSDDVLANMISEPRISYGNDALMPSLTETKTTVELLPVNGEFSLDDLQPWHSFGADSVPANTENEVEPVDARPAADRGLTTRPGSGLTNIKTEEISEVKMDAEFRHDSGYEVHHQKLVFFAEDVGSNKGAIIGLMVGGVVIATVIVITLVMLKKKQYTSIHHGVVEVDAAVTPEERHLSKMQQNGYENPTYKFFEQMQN
Sequence of Cholinesterases; ACHE & BCHE (Homo sapiens) (P06276 whole entry, looked up): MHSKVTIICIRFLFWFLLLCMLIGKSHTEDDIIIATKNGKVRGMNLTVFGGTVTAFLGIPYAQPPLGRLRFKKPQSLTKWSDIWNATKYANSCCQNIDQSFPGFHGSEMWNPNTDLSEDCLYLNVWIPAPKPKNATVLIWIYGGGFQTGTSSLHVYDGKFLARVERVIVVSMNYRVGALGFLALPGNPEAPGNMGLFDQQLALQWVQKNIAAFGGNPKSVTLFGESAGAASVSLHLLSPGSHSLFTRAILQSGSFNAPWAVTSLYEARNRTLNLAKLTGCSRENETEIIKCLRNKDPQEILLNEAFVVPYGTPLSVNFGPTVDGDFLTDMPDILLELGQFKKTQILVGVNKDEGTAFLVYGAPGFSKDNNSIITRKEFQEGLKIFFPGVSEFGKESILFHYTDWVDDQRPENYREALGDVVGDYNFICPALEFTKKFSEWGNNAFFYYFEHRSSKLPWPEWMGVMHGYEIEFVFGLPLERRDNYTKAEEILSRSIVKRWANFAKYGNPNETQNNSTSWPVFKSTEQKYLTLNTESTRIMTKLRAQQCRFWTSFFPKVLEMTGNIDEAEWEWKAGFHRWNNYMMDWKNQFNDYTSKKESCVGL
Sequence of Cholinesterases; ACHE & BCHE (Homo sapiens) (P22303 whole entry, looked up): as the sequence (P22303 whole entry) above
Sequence of Cholinesterase (P06276 whole entry): as the sequence (P06276 whole entry, looked up) above

As to `CCN(CCCCCCNC1=CC(=O)C(NCCCCCCN(CC)Cc2ccccc2OC)=CC1=O)Cc1ccccc1OC`, in assay [1], the Ratio IC50 stood at 929.
`CCN(CCCCCCNC1=CC(=O)C(NCCCCCCN(CC)[C@@H](C)c2ccccc2OC)=CC1=O)[C@@H](C)c1ccccc1OC`: the IC50 on Cholinesterase came to 958 nM; on Acetylcholinesterase [3], 7910 nM; on Acetylcholinesterase [4] it was 4.03 nM. Further, in assay [1], the Ratio IC50 came out at 238. The inhibition in assay [2] turned out to be 62.3%.
Take `CCN(CCCCCCNC1=CC(=O)C(NCCCCCCN(CC)[C@H](C)c2ccccc2OC)=CC1=O)[C@H](C)c1ccccc1OC`: the IC50 on Cholinesterase is 1480 nM; against Acetylcholinesterase [3] it was 9340 nM; on Acetylcholinesterase [4], 0.5 nM. Moreover, the Ratio IC50 in assay [1] was found to be 2960. The same compound had an inhibition in assay [2] of 63.9%.
In the case of `CCN(CCCCCCNC1=CC(=O)C(NCCCCCCN(CC)[C@@H](C)c2ccccc2OC)=CC1=O)[C@H](C)c1ccccc1OC`, the IC50 was 982 nM at Cholinesterase, 11000 nM against Acetylcholinesterase [3] and 0.36 nM on Acetylcholinesterase [4]. The Ratio IC50 in assay [1] amounted to 2730. In assay [2], the inhibition turned out to be 63.5%.

By IC50 is commonly meant the concentration needed to halve the response being measured. One may read the inhibition as how much of the control response was suppressed. Low readings indicate a response near the control, high ones a response far below the control.
